From ChEMBL document CHEMBL4421728, “Bach1 Inhibitors in Combination with Nrf2 Activators and Pharmaceutical Compositions Thereof” (2017)

Columns and labels:
[1] = molecular target: T1, Transcription regulator protein BACH1 (Homo sapiens) (UniProt O14867); assay: Inhibition of Bach1 in normal human lung fibroblasts assessed as induction of HMOX protein expression at 0.625 uM incubated for 16 to 18 hrs in presence of 0.156 uM Nrf2 activator Bardoxolone methyl by immunostaining relative to control
T1 sequence (whole entry): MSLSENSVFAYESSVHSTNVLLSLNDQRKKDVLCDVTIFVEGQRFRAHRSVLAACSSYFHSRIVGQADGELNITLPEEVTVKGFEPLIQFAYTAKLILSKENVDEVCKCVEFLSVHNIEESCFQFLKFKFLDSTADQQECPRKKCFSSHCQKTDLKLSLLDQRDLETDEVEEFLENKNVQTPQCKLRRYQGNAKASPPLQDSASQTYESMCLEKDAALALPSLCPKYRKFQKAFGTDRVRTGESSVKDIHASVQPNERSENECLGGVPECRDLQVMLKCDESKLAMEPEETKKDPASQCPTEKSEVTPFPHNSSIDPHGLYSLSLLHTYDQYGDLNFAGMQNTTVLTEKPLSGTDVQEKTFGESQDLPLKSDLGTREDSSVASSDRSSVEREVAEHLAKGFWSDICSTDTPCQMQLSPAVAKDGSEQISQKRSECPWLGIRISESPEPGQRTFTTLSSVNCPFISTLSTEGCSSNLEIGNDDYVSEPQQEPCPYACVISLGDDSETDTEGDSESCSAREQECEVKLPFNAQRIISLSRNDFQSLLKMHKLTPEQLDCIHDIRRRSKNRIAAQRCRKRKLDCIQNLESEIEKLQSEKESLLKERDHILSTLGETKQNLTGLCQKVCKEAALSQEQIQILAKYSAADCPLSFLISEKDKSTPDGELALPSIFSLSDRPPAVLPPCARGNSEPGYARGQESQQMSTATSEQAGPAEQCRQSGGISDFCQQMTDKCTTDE

[2] = molecular target: T1, Transcription regulator protein BACH1 (Homo sapiens); assay: Inhibition of Bach1 in normal human lung fibroblasts assessed as induction of HMOX protein expression at 0.156 uM incubated for 16 to 18 hrs in presence of 0.0048 uM Nrf2 activator Bardoxolone methyl by immunostaining relative to control
[3] = molecular target: T1, Transcription regulator protein BACH1 (Homo sapiens); assay: Inhibition of Bach1 in normal human lung fibroblasts assessed as induction of HMOX protein expression at 0.039 uM incubated for 16 to 18 hrs in presence of 0.078 uM Nrf2 activator Bardoxolone methyl by immunostaining relative to control
[4] = molecular target: T1, Transcription regulator protein BACH1 (Homo sapiens); assay: Inhibition of Bach1 in normal human lung fibroblasts assessed as induction of HMOX protein expression at 2.5 uM incubated for 16 to 18 hrs in presence of 0.156 uM Nrf2 activator Bardoxolone methyl by immunostaining relative to control
[5] = molecular target: T1, Transcription regulator protein BACH1 (Homo sapiens); assay: Inhibition of Bach1 in normal human lung fibroblasts assessed as induction of HMOX protein expression at 1.25 uM incubated for 16 to 18 hrs in presence of 0.156 uM Nrf2 activator Bardoxolone methyl by immunostaining relative to control
[6] = molecular target: T1, Transcription regulator protein BACH1 (Homo sapiens); assay: Inhibition of Bach1 in normal human lung fibroblasts assessed as induction of HMOX protein expression at 2.5 uM incubated for 16 to 18 hrs in presence of 0.019 uM Nrf2 activator Bardoxolone methyl by immunostaining relative to control
[7] = molecular target: T1, Transcription regulator protein BACH1 (Homo sapiens); assay: Inhibition of Bach1 in normal human lung fibroblasts assessed as induction of HMOX protein expression at 0.078 uM incubated for 16 to 18 hrs in presence of 0.312 uM Nrf2 activator Bardoxolone methyl by immunostaining relative to control
[8] = molecular target: T1, Transcription regulator protein BACH1 (Homo sapiens); assay: Inhibition of Bach1 in normal human lung fibroblasts assessed as induction of HMOX protein expression at 0.078 uM incubated for 16 to 18 hrs in presence of 0.0097 uM Nrf2 activator Bardoxolone methyl by immunostaining relative to control
[9] = molecular target: T1, Transcription regulator protein BACH1 (Homo sapiens); assay: Inhibition of Bach1 in normal human lung fibroblasts assessed as induction of HMOX protein expression at 0.039 uM incubated for 16 to 18 hrs in presence of 0.0048 uM Nrf2 activator Bardoxolone methyl by immunostaining relative to control
[10] = molecular target: T1, Transcription regulator protein BACH1 (Homo sapiens); assay: Inhibition of Bach1 in normal human lung fibroblasts assessed as induction of HMOX protein expression at 1.25 uM incubated for 16 to 18 hrs in presence of 0.0097 uM Nrf2 activator Bardoxolone methyl by immunostaining relative to control
[11] = molecular target: T1, Transcription regulator protein BACH1 (Homo sapiens); assay: Inhibition of Bach1 in normal human lung fibroblasts assessed as induction of HMOX protein expression at 0.625 uM incubated for 16 to 18 hrs in presence of 0.0024 uM Nrf2 activator Bardoxolone methyl by immunostaining relative to control
[12] = molecular target: T1, Transcription regulator protein BACH1 (Homo sapiens); assay: Inhibition of Bach1 in normal human lung fibroblasts assessed as induction of HMOX protein expression at 0.312 uM incubated for 16 to 18 hrs in presence of 0.039 uM Nrf2 activator Bardoxolone methyl by immunostaining relative to control
[13] = molecular target: T1, Transcription regulator protein BACH1 (Homo sapiens); assay: Inhibition of Bach1 in normal human lung fibroblasts assessed as induction of HMOX protein expression at 0.078 uM incubated for 16 to 18 hrs in presence of 0.039 uM Nrf2 activator Bardoxolone methyl by immunostaining relative to control
[14] = molecular target: T1, Transcription regulator protein BACH1 (Homo sapiens); assay: Inhibition of Bach1 in normal human lung fibroblasts assessed as induction of HMOX protein expression at 0.156 uM incubated for 16 to 18 hrs in presence of 0.0024 uM Nrf2 activator Bardoxolone methyl by immunostaining relative to control
[15] = molecular target: T1, Transcription regulator protein BACH1 (Homo sapiens); assay: Inhibition of Bach1 in normal human lung fibroblasts assessed as induction of HMOX protein expression at 2.5 uM incubated for 16 to 18 hrs by immunostaining relative to control
[16] = molecular target: T1, Transcription regulator protein BACH1 (Homo sapiens); assay: Inhibition of Bach1 in normal human lung fibroblasts assessed as induction of HMOX protein expression at 0.039 uM incubated for 16 to 18 hrs in presence of 0.312 uM Nrf2 activator Bardoxolone methyl by immunostaining relative to control
[17] = molecular target: T1, Transcription regulator protein BACH1 (Homo sapiens); assay: Inhibition of Bach1 in normal human lung fibroblasts assessed as induction of HMOX protein expression at 2.5 uM incubated for 16 to 18 hrs in presence of 0.0048 uM Nrf2 activator Bardoxolone methyl by immunostaining relative to control
[18] = molecular target: T1, Transcription regulator protein BACH1 (Homo sapiens); assay: Inhibition of Bach1 in normal human lung fibroblasts assessed as induction of HMOX protein expression at 1.25 uM incubated for 16 to 18 hrs by immunostaining relative to control
[19] = molecular target: T1, Transcription regulator protein BACH1 (Homo sapiens); assay: Inhibition of Bach1 in normal human lung fibroblasts assessed as induction of HMOX protein expression at 0.156 uM incubated for 16 to 18 hrs in presence of 0.039 uM Nrf2 activator Bardoxolone methyl by immunostaining relative to control
[20] = molecular target: T1, Transcription regulator protein BACH1 (Homo sapiens); assay: Inhibition of Bach1 in normal human lung fibroblasts assessed as induction of HMOX protein expression at 0.156 uM incubated for 16 to 18 hrs in presence of 0.078 uM Nrf2 activator Bardoxolone methyl by immunostaining relative to control
[21] = molecular target: T1, Transcription regulator protein BACH1 (Homo sapiens); assay: Inhibition of Bach1 in normal human lung fibroblasts assessed as induction of HMOX protein expression at 0.312 uM incubated for 16 to 18 hrs by immunostaining relative to control

Compound: CNC(=O)c1ccc2c(c1)nc(Nc1nc3ccc(OC(F)(F)F)cc3s1)n2C
- fold change (FC) [1]: 18.7
- fold change (FC) [2]: 8.04
- fold change (FC) [3]: 18.7
- fold change (FC) [4]: 12.5
- fold change (FC) [5]: 16.6
- fold change (FC) [6]: 17
- fold change (FC) [7]: 15.3
- fold change (FC) [8]: 8.43
- fold change (FC) [9]: 3.04
- fold change (FC) [10]: 16.5
- fold change (FC) [11]: 15.7
- fold change (FC) [12]: 19.6
- fold change (FC) [13]: 17.8
- fold change (FC) [14]: 7.32
- fold change (FC) [15]: 17.5
- fold change (FC) [16]: 17.4
- fold change (FC) [17]: 19.5
- fold change (FC) [18]: 16.2
- fold change (FC) [19]: 17.6
- fold change (FC) [20]: 18.4
- fold change (FC) [21]: 9.82
